Where a SMILES comes first, the peptide text is derived from it. Bridges are numbered along the chain shown (N, C = ends). [ ]: non-standard residue; d: D form. Tic = O=C(O)[C@@H]1Cc2ccccc2CN1
Molecular target: T1, P-selectin (Homo sapiens, UniProt P16109)
T1 construct: P-selectin is isolated from human platelet lysates; from tissue; host or cells: human platelets (outdated platelet packs from a blood bank)
T1 sequence (P16109 42-830): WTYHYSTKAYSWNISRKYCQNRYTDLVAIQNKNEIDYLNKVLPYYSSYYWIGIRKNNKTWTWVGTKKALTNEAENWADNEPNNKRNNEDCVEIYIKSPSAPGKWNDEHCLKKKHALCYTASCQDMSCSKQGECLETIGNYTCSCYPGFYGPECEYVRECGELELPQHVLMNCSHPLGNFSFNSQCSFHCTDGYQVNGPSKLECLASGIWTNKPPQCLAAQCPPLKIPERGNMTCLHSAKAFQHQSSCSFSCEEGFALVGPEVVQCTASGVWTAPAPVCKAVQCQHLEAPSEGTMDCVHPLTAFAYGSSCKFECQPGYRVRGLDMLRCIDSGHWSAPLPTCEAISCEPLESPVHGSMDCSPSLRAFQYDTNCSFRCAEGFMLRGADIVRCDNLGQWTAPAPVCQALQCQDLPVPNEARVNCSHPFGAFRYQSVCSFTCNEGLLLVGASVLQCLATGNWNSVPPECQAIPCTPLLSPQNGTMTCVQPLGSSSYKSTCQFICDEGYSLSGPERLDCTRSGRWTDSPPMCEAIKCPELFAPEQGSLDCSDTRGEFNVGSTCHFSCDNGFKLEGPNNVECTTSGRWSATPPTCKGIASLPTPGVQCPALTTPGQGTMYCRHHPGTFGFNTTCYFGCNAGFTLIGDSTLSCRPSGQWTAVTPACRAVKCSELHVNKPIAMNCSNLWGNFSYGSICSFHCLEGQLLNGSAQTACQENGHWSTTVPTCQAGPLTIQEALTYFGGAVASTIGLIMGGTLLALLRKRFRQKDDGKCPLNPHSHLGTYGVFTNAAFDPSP
Test: Inhibition of human neutrophil adhesion to purified P-selectin immobilized on plastic wells
Type: cell-based
Conditions: inhibiting the binding of human neutrophils to P-selectin
Method in brief: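 Isolated human neutrophils (2×10^5 per well) in HBSS with Ca2+/Mg2+ and HSA added to wells coated overnight at 4° C with platelet-derived P-selectin (5 micrograms/mL), HSA-blocked; 20 min at 22° C. Nonadherent cells removed by inverted centrifugation at 150 g; adherent cells quantified by myeloperoxidase activity.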

Row | IC50 | SMILES
1 | 983 µM | CC(C)[C@@H](NC(=O)[C@@H](Cc1c[nH]c2ccccc12)NC(=O)[C@H](NC(=O)[C@@H](Cc1c[nH]c2ccccc12)NC(=O)[C@H]1CSSC[C@@H](NC(=O)[C@@H](CCCCN)NC(=O)[C@H](N)CCCNC(=N)N)C(=O)N2CCC[C@H]2C(=O)NCC(=O)N1)[C@H](C)O)C(N)=O [(83)] (H-[dR][dK][dC]PG[dC][dW][dT][dW][dV]-NH2; disulfide 3-6)
2 | 83.4 µM | CC(C)[C@@H](NC(=O)[C@@H](Cc1c[nH]c2ccccc12)NC(=O)[C@H](NC(=O)[C@@H](Cc1c[nH]c2ccccc12)NC(=O)[C@H]1CSSC[C@@H](NC(=O)[C@@H](CCCCN)NC(=O)[C@H](N)CCCNC(=N)N)C(=O)NCC(=O)N2Cc3ccccc3C[C@H]2C(=O)N1)[C@H](C)O)C(N)=O [(86)] (H-[dR][dK][dC]G[Tic][dC][dW][dT][dW][dV]-NH2; disulfide 3-6)
3 | 5.7 µM | CC(C)[C@@H](NC(=O)[C@@H](Cc1c[nH]c2ccccc12)NC(=O)[C@H](NC(=O)[C@@H](Cc1c[nH]c2ccccc12)NC(=O)[C@H]1CSSC[C@@H](NC(=O)[C@@H](CCCCN)NC(=O)[C@H](N)CCCNC(=N)N)C(=O)NCC(=O)N[C@@H](Cc2ccc(O)cc2)C(=O)N1)[C@H](C)O)C(N)=O [(87)] (H-[dR][dK][dC]GY[dC][dW][dT][dW][dV]-NH2; disulfide 3-6)
4 | 42.7 µM | CC(C)[C@@H](NC(=O)[C@@H](Cc1c[nH]c2ccccc12)NC(=O)[C@H](NC(=O)[C@@H](Cc1c[nH]c2ccccc12)NC(=O)[C@@H]1CSSC[C@@H](NC(=O)[C@@H](CCCCN)NC(=O)[C@H](N)CCCNC(=N)N)C(=O)NCC(=O)N[C@@H](Cc2ccccc2)C(=O)N1)[C@H](C)O)C(N)=O [(91)] (H-[dR][dK][dC]GFC[dW][dT][dW][dV]-NH2; disulfide 3-6)
5 | 26.8 µM | CC[C@H](C)[C@@H]1NC(=O)[C@H](NC(=O)[C@@H](CCCCN)NC(=O)[C@H](N)CCCNC(=N)N)CSSC[C@H](C(=O)N[C@H](Cc2c[nH]c3ccccc23)C(=O)N[C@@H](C(=O)N[C@H](Cc2c[nH]c3ccccc23)C(=O)N[C@@H](C(N)=O)C(C)C)[C@H](C)O)NC(=O)[C@@H]2CCCN2C1=O [(95)] (H-[dR][dK][dC]IP[dC][dW][dT][dW][dV]-NH2; disulfide 3-6)
6 | 26.7 µM | CC(C)[C@@H](NC(=O)[C@H](Cc1c[nH]c2ccccc12)NC(=O)[C@H](NC(=O)[C@@H](Cc1c[nH]c2ccccc12)NC(=O)[C@H]1CSSC[C@@H](NC(=O)[C@@H](CCCCN)NC(=O)[C@H](N)CCCNC(=N)N)C(=O)NCC(=O)N[C@@H](Cc2ccccc2)C(=O)N1)[C@H](C)O)C(N)=O [(96)] (H-[dR][dK][dC]GF[dC][dW][dT]W[dV]-NH2; disulfide 3-6)
7 | 28.7 µM | CC(C)[C@@H](NC(=O)[C@@H](Cc1c[nH]c2ccccc12)NC(=O)[C@@H](NC(=O)[C@@H](Cc1c[nH]c2ccccc12)NC(=O)[C@H]1CSSC[C@@H](NC(=O)[C@@H](CCCCN)NC(=O)[C@H](N)CCCNC(=N)N)C(=O)NCC(=O)N[C@@H](Cc2ccccc2)C(=O)N1)[C@@H](C)O)C(N)=O [(98)] (H-[dR][dK][dC]GF[dC][dW]T[dW][dV]-NH2; disulfide 3-6)
8 | 3.1 µM | CC(C)[C@@H](NC(=O)[C@@H](Cc1c[nH]c2ccccc12)NC(=O)[C@H](NC(=O)[C@H](Cc1c[nH]c2ccccc12)NC(=O)[C@H]1CSSC[C@@H](NC(=O)[C@@H](CCCCN)NC(=O)[C@H](N)CCCNC(=N)N)C(=O)NCC(=O)N[C@@H](Cc2ccccc2)C(=O)N1)[C@H](C)O)C(N)=O [(99)] (H-[dR][dK][dC]GF[dC]W[dT][dW][dV]-NH2; disulfide 3-6)
9 | 88.3 µM | CC(C)[C@@H](NC(=O)[C@@H](CCC(N)=O)NC(=O)[C@H](NC(=O)[C@@H](Cc1ccc(O)cc1)NC(=O)[C@H]1CSSC[C@@H](NC(=O)[C@@H](CCCCN)NC(=O)[C@H](N)CCCNC(=N)N)C(=O)NCC(=O)N[C@@H](Cc2ccccc2)C(=O)N1)[C@H](C)O)C(N)=O [(100)] (H-[dR][dK][dC]GF[dC][dY][dT][dQ][dV]-NH2; disulfide 3-6)
10 | 33.9 µM | CC(C)[C@@H](NC(=O)[C@@H](Cc1c[nH]c2ccccc12)NC(=O)[C@H](NC(=O)[C@@H](Cc1c[nH]c2ccccc12)NC(=O)[C@H]1CSSC[C@@H](NC(=O)[C@@H](CCCCN)NC(=O)[C@@H](N)CCCNC(=N)N)C(=O)NCC(=O)N[C@@H](Cc2ccccc2)C(=O)N1)[C@H](C)O)C(N)=O [(101)] (H-R[dK][dC]GF[dC][dW][dT][dW][dV]-NH2; disulfide 3-6)
11 | 191 µM | CC(=O)N[C@H](CCCCN)C(=O)N[C@@H]1CSSC[C@H](C(=O)N[C@H](Cc2c[nH]c3ccccc23)C(=O)N[C@@H](C(=O)N[C@H](Cc2c[nH]c3ccccc23)C(=O)N[C@@H](C(N)=O)C(C)C)[C@H](C)O)NC(=O)[C@H](Cc2ccc(O)cc2)NC(=O)CNC1=O [(104)] (Ac-[dK][dC]GY[dC][dW][dT][dW][dV]-NH2; disulfide 2-5)
12 | 97.8 µM | C[C@H](O)[C@H]1NC(=O)[C@@H](Cc2c[nH]c3ccccc23)NC(=O)[C@H]2CSSC[C@@H](NC(=O)[C@H](NC(=O)[C@H](N)CCCNC(=N)N)CCCCNC(=O)CC[C@H](C(N)=O)NC(=O)[C@@H](Cc3c[nH]c4ccccc34)NC1=O)C(=O)NCC(=O)N[C@@H](Cc1ccccc1)C(=O)N2 [(105)] (H-[dR][dK][dC]GF[dC][dW][dT][dW][dE]-NH2; lactam 2-10; disulfide 3-6; N-terminus assumed)
13 | 8 µM | CC(C)[C@@H](NC(=O)[C@@H](Cc1c[nH]c2ccccc12)NC(=O)[C@H]1CCC(=O)NCCCC[C@@H](NC(=O)[C@H](N)CCCNC(=N)N)C(=O)N[C@@H]2CSSC[C@@H](NC(=O)[C@H](Cc3ccccc3)NC(=O)CNC2=O)C(=O)N[C@H](Cc2c[nH]c3ccccc23)C(=O)N1)C(N)=O [(106)] (H-[dR][dK][dC]GF[dC][dW][dE][dW][dV]-NH2; lactam 2-8; disulfide 3-6; N-terminus assumed)
14 | 8 µM | CC[C@@H](C)[C@@H](NC(=O)[C@@H](CCCCN)NC(=O)[C@H](N)CCCNC(=N)N)C(=O)NCC(=O)N[C@@H]1CSSC[C@H](C(=O)N[C@H](Cc2c[nH]c3ccccc23)C(=O)N[C@@H](C(N)=O)C(C)C)NC(=O)[C@@H](Cc2c[nH]c3ccccc23)NC(=O)[C@@H]([C@H](C)CC)NC1=O [(107)] (H-[dR][dK][dI]G[dC][dI][dW][dC][dW][dV]-NH2; disulfide 5-8)
15 | 23.8 µM | CC[C@@H](C)[C@@H](NC(=O)[C@@H](CCCCN)NC(=O)[C@H](N)CCCNC(=N)N)C(=O)NCC(=O)N[C@@H]1CSSC[C@H](C(=O)N[C@@H](C(=O)N[C@@H](C(N)=O)C(C)C)[C@H](C)O)NC(=O)[C@@H](Cc2c[nH]c3ccccc23)NC(=O)[C@@H]([C@H](C)CC)NC1=O [(108)] (H-[dR][dK][dI]G[dC][dI][dW][dC][dT][dV]-NH2; disulfide 5-8)
16 | 33.9 µM | CC[C@@H](C)[C@@H](NC(=O)CNC(=O)[C@H]1CSSC[C@@H](N)C(=O)N[C@H](CCCCN)C(=O)N[C@H]([C@H](C)CC)C(=O)N1)C(=O)N[C@H](Cc1c[nH]c2ccccc12)C(=O)N[C@@H](C(=O)N[C@H](Cc1c[nH]c2ccccc12)C(=O)N[C@@H](C(N)=O)C(C)C)[C@H](C)O [(109)] (H-[dC][dK][dI][dC]G[dI][dW][dT][dW][dV]-NH2; disulfide 1-4)
17 | 52.9 µM | CC(C)[C@@H](NC(=O)[C@@H](Cc1c[nH]c2ccccc12)NC(=O)[C@H](NC(=O)[C@@H](Cc1c[nH]c2ccccc12)NC(=O)[C@H]1CSSC[C@@H](NC(=O)[C@@H](C)NC(=O)[C@H](N)CCCNC(=N)N)C(=O)NCC(=O)N[C@@H](Cc2ccccc2)C(=O)N1)[C@H](C)O)C(N)=O [(110)] (H-[dR][dA][dC]GF[dC][dW][dT][dW][dV]-NH2; disulfide 3-6)
18 | 18.4 µM | CC(C)[C@@H](NC(=O)[C@@H](Cc1c[nH]c2ccccc12)NC(=O)[C@H](NC(=O)[C@@H](Cc1c[nH]c2ccccc12)NC(=O)[C@H]1CSSC[C@@H](NC(=O)[C@@H](CCC(N)=O)NC(=O)[C@H](N)CCCNC(=N)N)C(=O)NCC(=O)N[C@@H](Cc2ccccc2)C(=O)N1)[C@H](C)O)C(N)=O [(111)] (H-[dR][dQ][dC]GF[dC][dW][dT][dW][dV]-NH2; disulfide 3-6)
19 | 236 µM | CC(C)[C@@H](NC(=O)[C@@H](Cc1c[nH]c2ccccc12)NC(=O)[C@H](NC(=O)[C@@H](Cc1c[nH]c2ccccc12)NC(=O)[C@H]1CSSC[C@@H](NC(=O)[C@@H](CCC(=O)O)NC(=O)[C@H](N)CCCNC(=N)N)C(=O)NCC(=O)N[C@@H](Cc2ccccc2)C(=O)N1)[C@H](C)O)C(N)=O [(112)] (H-[dR][dE][dC]GF[dC][dW][dT][dW][dV]-NH2; disulfide 3-6)
20 | 0.7 µM | CC(C)[C@@H](NC(=O)[C@@H](Cc1c[nH]c2ccccc12)NC(=O)[C@H](NC(=O)[C@@H](Cc1c[nH]c2ccccc12)NC(=O)[C@@H]1CSSC[C@H](NC(=O)[C@@H](CCCCN)NC(=O)[C@H](N)CCCNC(=N)N)C(=O)NCC(=O)NCC(=O)N1)[C@H](C)O)C(N)=O [(113)] (H-[dR][dK]CGGC[dW][dT][dW][dV]-NH2; disulfide 3-6)

Source: patent publication US5753617A, “Peptide inhibitors of cellular adhesion” (Centocor, Inc., priority 1995, dated 1998)
